Results published in patent US8901159B2, “Inhibition of inflammation by simultaneous blockade of multiple prostanoid receptors” (Allergan, Inc., priority 2010, dated 2014).

Tests used:
[1] = tested on: human recombinant prostanoid receptor (DP1, EP1-4, FP, IP and TP); test: Prostanoid receptor blockade profile stated in words; assay type: cell-based
Method: (§1) The above compounds were tested for PG antagonist activity as follows using human recombinant prostanoid receptor (DP1, EP1-4, FP, IP and TP) stable cell lines:
(§2) In order to measure the response of Gs and Gi coupled prostanoid receptors as a Ca^2+ signal, chimeric G protein cDNAs were used. Stable cell lines over-expressing human prostanoid DP1, EP1-4, FP, IP, and TP receptors were established as described in U.S. Ser. No. 61/410,153.

[2] = target: T1, human prostanoid DP1 receptor (Homo sapiens, UniProt Q13258); test: PG antagonist activity, Ca2+ signal in human recombinant prostanoid receptor stable cell line; assay type: cell-based; details: parameter and unit not given
T1 construct: expressed in transfected cells
T1 sequence (Q13258 1-359): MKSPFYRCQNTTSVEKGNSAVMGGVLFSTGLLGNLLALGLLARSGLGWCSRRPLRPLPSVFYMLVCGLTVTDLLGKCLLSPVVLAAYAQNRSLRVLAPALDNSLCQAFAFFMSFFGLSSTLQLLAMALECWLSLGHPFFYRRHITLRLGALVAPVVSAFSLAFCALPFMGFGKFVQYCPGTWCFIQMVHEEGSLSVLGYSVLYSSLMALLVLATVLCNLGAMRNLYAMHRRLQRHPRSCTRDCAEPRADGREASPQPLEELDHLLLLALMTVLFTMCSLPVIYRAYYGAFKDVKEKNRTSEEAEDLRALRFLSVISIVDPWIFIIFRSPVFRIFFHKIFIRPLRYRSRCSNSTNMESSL
Method: as §1, §2

[3] = target: T2, human prostanoid EP1 receptor (Homo sapiens, UniProt P34995); test: as above; assay type: cell-based; details: parameter and unit not given
T2 construct: expressed in transfected cells
T2 sequence (P34995 1-402): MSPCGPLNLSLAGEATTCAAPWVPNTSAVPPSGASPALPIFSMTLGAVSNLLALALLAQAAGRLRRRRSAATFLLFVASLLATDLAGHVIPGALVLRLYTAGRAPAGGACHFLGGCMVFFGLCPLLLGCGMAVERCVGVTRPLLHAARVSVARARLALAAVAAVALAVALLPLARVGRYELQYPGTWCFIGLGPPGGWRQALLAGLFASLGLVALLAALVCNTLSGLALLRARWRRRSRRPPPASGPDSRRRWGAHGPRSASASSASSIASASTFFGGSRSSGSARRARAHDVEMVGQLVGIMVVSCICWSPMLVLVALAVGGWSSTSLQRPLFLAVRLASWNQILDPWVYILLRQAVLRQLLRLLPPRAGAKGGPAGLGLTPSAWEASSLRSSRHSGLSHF
Method: as §1, §2

[4] = target: T3, human prostanoid EP3 receptor (Homo sapiens, UniProt P43115); test: as above; assay type: cell-based; details: parameter and unit not given
T3 construct: expressed in transfected cells
T3 sequence (P43115 1-390): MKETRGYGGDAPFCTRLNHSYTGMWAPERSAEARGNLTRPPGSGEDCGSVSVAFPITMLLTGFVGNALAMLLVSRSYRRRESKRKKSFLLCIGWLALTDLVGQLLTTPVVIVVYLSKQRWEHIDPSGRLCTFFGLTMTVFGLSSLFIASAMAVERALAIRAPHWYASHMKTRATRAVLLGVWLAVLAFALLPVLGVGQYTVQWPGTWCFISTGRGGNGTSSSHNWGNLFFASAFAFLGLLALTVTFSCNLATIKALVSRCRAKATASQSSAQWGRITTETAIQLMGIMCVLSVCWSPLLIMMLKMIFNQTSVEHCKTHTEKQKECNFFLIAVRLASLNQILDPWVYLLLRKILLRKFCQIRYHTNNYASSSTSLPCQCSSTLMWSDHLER
Method: as §1, §2

[5] = target: T4, human prostanoid EP4 receptor (Homo sapiens, UniProt P35408); test: as above; assay type: cell-based; details: parameter and unit not given
T4 construct: expressed in transfected cells
T4 sequence (P35408 whole entry): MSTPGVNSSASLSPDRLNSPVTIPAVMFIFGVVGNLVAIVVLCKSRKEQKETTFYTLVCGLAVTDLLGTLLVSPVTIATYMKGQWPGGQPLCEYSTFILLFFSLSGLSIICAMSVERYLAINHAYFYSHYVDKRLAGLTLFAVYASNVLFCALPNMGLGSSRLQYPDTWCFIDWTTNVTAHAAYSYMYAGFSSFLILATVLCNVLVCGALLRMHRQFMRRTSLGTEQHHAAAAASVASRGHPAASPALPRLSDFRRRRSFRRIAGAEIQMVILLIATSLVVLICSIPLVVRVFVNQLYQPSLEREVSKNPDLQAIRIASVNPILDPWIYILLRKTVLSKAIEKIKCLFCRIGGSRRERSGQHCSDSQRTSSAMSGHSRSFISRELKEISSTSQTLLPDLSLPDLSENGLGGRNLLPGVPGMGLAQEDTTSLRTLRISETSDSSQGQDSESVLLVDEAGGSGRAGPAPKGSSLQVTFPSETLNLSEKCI
Method: as §1, §2

[6] = target: T5, human prostanoid FP receptor (Homo sapiens, UniProt P43088); test: as above; assay type: cell-based; details: parameter and unit not given
T5 construct: expressed in transfected cells
T5 sequence (P43088 whole entry): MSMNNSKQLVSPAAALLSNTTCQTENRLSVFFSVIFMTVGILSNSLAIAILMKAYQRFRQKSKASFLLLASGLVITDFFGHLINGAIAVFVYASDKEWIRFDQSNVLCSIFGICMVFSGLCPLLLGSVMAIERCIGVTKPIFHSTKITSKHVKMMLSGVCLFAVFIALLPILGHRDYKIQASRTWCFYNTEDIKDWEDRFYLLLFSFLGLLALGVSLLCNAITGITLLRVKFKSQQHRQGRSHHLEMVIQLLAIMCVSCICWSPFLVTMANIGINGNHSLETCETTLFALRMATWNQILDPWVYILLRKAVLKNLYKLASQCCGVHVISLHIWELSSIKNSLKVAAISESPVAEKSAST
Method: as §1, §2

[7] = target: T6, human prostanoid TP receptor (Homo sapiens, UniProt P21731); test: as above; assay type: cell-based; details: parameter and unit not given
T6 construct: expressed in transfected cells
T6 sequence (P21731 1-343): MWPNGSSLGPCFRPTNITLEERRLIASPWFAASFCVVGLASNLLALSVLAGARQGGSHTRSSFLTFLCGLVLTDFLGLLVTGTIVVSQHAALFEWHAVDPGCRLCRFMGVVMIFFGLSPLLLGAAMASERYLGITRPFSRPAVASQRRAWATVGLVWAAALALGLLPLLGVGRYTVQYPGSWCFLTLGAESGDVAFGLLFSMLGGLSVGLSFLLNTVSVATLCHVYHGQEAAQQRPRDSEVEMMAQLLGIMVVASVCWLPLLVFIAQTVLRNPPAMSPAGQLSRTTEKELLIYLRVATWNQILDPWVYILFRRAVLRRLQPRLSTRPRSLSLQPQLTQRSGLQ
Method: as §1, §2

[8] = tested on: Experimental autoimmune uveoretinitis (EAU); test: Rat Experimental Autoimmune Uveoretinitis (EAU) model; assay type: in vivo; details: FIG. 14
[9] = tested on: laser-induced neovascularization (CNV); test: Rat laser-induced neovascularization (CNV) model; assay type: in vivo; details: formulated in 70% PEG, FIG. 15, vs vehicle, EXAMPLE 8, SC-51322 and their combination
Method: The compound of Example 1 was also evaluated for activity in an in-vivo Rat laser-induced neovascularization (CNV) model.
In this test, compounds were formulated in 70% polyethylene glycol (PEG). CNV is induced by laser burn.

[10] = target: T7, human prostanoid EP2 receptor (Homo sapiens, UniProt P43116); test: PG antagonist activity, Ca2+ signal in human recombinant prostanoid receptor stable cell line; assay type: cell-based; details: parameter and unit not given
T7 construct: expressed in transfected cells
T7 sequence (P43116 whole entry): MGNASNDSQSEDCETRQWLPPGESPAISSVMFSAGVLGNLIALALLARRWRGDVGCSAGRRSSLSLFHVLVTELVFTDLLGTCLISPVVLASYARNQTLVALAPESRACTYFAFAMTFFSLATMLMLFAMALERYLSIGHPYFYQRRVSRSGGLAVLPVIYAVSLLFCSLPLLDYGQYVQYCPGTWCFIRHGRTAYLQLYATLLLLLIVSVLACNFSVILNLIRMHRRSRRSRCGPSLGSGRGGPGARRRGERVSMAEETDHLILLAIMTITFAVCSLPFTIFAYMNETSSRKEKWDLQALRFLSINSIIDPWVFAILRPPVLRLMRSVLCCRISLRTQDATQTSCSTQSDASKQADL
Method: as §1, §2

[11] = target: T8, human prostanoid IP receptor (Homo sapiens, UniProt P43119); test: as above; assay type: cell-based; details: parameter and unit not given
T8 construct: expressed in transfected cells
T8 sequence (P43119 whole entry): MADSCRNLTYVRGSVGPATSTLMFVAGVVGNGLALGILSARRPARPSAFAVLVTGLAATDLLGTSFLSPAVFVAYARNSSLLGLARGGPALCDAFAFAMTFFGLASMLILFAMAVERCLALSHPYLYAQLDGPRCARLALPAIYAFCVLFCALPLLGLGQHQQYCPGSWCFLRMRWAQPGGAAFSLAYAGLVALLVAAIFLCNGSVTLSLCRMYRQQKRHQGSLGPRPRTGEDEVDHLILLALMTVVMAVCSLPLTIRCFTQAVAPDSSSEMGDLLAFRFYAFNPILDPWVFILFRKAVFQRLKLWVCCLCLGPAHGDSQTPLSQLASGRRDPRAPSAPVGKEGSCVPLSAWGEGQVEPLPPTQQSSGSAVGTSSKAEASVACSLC
Method: as §1, §2

[12] = tested on: human recombinant prostanoid receptor (DP1, EP1-4, FP, IP and TP); details: stated in words; IUPHAR database referred to; cited from earlier work
[13] = rat EAU, vs all of the comparators

Row | Structure (SMILES) | DP (PG antagonist activity) [2] | EP1 (PG antagonist activity) [3] | EP3 (PG antagonist activity) [4] | EP4 (PG antagonist activity) [5] | FP (PG antagonist activity) [6] | TP (PG antagonist activity) [7] | EP2 (PG antagonist activity) [10] | IP (PG antagonist activity) [11] | prostanoid receptor selectivity / blockade profile [1] | clinical score ([8]; rat EAU induced by M18 peptide, vs vehicle, EXAMPLE 8, SC-51322 and their combination) | amount of invasive cells in the aqueous humor [8, 13] | amount of protein in the aqueous humor [8, 13] | clinical score (angiostatic efficacy) [9] | prostanoid receptor blockade profile of comparator [12]
1 | O=C(O)CCc1ccc(F)cc1C[C@H]1[C@@H]2CCC(O2)[C@H]1c1nc(C(=O)NCCCCC2CCCCC2)co1 [EXAMPLE 8, 3-(2-{(1S,2R,3S)-3-[4-(4-Cyclohexyl-butylcarbamoyl)-oxazol-2-yl]-7-oxa-bicyclo[2.2.1]hept-2-ylmethyl}-4-fluoro-phenyl)-propionic acid] |  |  |  |  |  |  |  |  | selective for DP1, EP4, FP and TP receptors |  |  |  |  | 
2 | CCCCCCCCNC(=O)c1coc(C2C3CCC(O3)C2Cc2cc(F)ccc2/C=C/C(=O)O)n1 (stereo not drawn) [Example 2] | 220 | 2000 |  | 120 | 300 | <1 |  |  |  |  |  |  |  | 
3 | CCCCCCCCCNC(=O)c1coc(C2C3CCC(O3)C2Cc2cc(F)ccc2/C=C/C(=O)O)n1 (stereo not drawn) [Example 3] | 270 | 4100 |  | 180 | 230 | <1 |  |  |  |  |  |  |  | 
4 | O=C(CCSCc1ccco1)NNC(=O)N1Cc2ccccc2Oc2ccc(Cl)cc21 [SC-51322] |  |  |  |  |  |  |  |  |  |  |  |  |  | blocks the EP1 receptor, only

Now from value to compound, other results behind:

Row | DP (PG antagonist activity) [2] | EP1 (PG antagonist activity) [3] | EP3 (PG antagonist activity) [4] | EP4 (PG antagonist activity) [5] | FP (PG antagonist activity) [6] | TP (PG antagonist activity) [7] | EP2 (PG antagonist activity) [10] | IP (PG antagonist activity) [11] | Structure (SMILES) | prostanoid receptor selectivity / blockade profile [1] | clinical score ([8]; rat EAU induced by M18 peptide, vs vehicle, EXAMPLE 8, SC-51322 and their combination) | amount of invasive cells in the aqueous humor [8, 13] | amount of protein in the aqueous humor [8, 13] | clinical score (angiostatic efficacy) [9] | prostanoid receptor blockade profile of comparator [12]
5 | 71 | 380 | 5500 | 60 | 59 | <1 |  |  | O=C(O)/C=C/c1ccc(F)cc1C[C@@H]1C(c2nc(C(=O)NCCCCC3CCCCC3)co2)C2CC[C@H]1O2 (stereo partly drawn) [Example 1, (E)-3-(2R-{3R-[4-(4-Cyclohexyl-butylcarbamoyl)-oxazol-2-yl]-7-oxa-bicyclo[2.2.1]hept-2-ylmethyl}-4-fluoro-phenyl)-acrylic acid] |  | better clinical score than any of the comparators except the combination | lower amount | lower amount | better clinical score than any of the comparators except the combination | 
6 | 17 | 660 | 4100 | 92 | 12 | <1 | 4300 | 1900 | CCCCCCCCCNC(=O)c1coc(C2C3CC[C@@H](O3)[C@@H]2Cc2cc(F)ccc2CCC(=O)O)n1 (stereo partly drawn) [Example 4, 3-{2R-[3R-(4-Nonylcarbamoyl-oxazol-2-yl)-7-oxa-bicyclo[2.2.1]hept-2-ylmethyl]-4-fluoro-phenyl}-propionic acid] |  |  |  |  |  | 
7 | 55 | 1400 | 4700 | 160 | 25 | <1 |  | 2400 | CCCCCCCCNC(=O)c1coc(C2C3CCC(O3)C2Cc2cc(F)ccc2CCC(=O)O)n1 (stereo not drawn) [Example 5] |  |  |  |  |  | 
8 | 50 | 1750 |  | 170 | 35 | <1 |  |  | O=C(O)CCc1ccc(F)cc1CC1C2CCC(O2)C1c1nc(C(=O)NCCCCC2CCCCC2)co1 (stereo not drawn) [Example 6] |  |  |  |  |  | 
